1 compound from patent US20190145978A1, “APPLICATION OF PDE3A IN JUDGMENT OF TUMOR TREATMENT EFFECT OF ANAGRELID” (Shanghai Institute of Materia Medica, Chinese Academy of …, priority 2016, published 2019) can be followed below.

One may read the IC50 as the concentration at which inhibition is half-maximal.

Where two headings read alike, the source gives them in different places. A value given as a limit tells only on which side of the number the result lay.

Series [1] relates to HeLa cells transfected with pde3a siRNA. Nature of the series: PI detection of apoptotic cells in HeLa after PDE3A knockdown and anagrelide treatment. The class given is cell-based, human. To be noted: 48 hours after PDE3A knockout, anagrelide 36 hours, PI staining. As to the method:
The HeLa cells in logarithmic growth phase were inoculated into 96-well plates or RTCA plates at about 6000/well and cultivated overnight until the cells were attached about 70-80%, and the cells were in good condition; a certain amount of serum-free and antibiotic-free medium was added into two EP tubes, respectively, and a suitable amount of siRNA was added into one tube and mixed, while a suitable amount of Lipofectamine™2000 was added into the other tube and mixed at room temperature for 5-10 min. The medium supplemented with Lipofectamine™ reagent was added into the siRNA-containing EP tube and mixed at room temperature for 15 min; during the placement, the cells were washed once with serum-free and non-double antibody medium, and 75 μL of the medium was added, ready for use. After 15 minutes, the mixed medium was added into the cell culture dish, 25 μL/well, and gently shaken and mixed; after cultured at 37° C., 5% CO2 for 6 hours, the medium was changed to fresh medium containing 10% FBS; after 24-72 h, the expression of RNAi interference protein was detected by western blot. In 96-well plates, cells were treated with different compounds for 24-36 hours, and 2 μL of PI dye liquor (25 ug/mL) was added into 96-well plates. Cells were incubated for 20 min, and photographed under a fluorescence microscope for observation of the number of red fluorescent cells. […]

Series [2] relates to SMMC7721, FHCC98, H4, and HeLa. The series can be described thus: Antitumor activity assay (MTT), anagrelide-sensitive PDE3A-positive cell lines. To be noted: for IC50: Homo sapiens. The format is cell-based, human. As to the method: (§1) Wherein anagrelide (1 μM) is used for treatment for 72 hours, and MTT assay is used to detect the cell survival rate. The cells are classified by the test results: sensitive (survival rate <40%), moderately sensitive (40-75% of survival rate), resistance (survival rate >75. The cell names in the figure are marked with a circle and a triangle respectively to identify the sensitive group and the moderately sensitive group. 3. Determination of Half Poisoning Dose of Drugs to Cells (MTT Method) The liquid containing drugs was continuously geometrically diluted to 1:10, 1:100, 1:1,000, 1:10,000 with a cell maintenance solution, and a normal cell control group was set up. Different concentrations of each drug were added into a 96-well plate that has been grown into a single layer, respectively, and inoculated per dilution in triplicate, and 100 μl was added per well, and the plate was incubated in a carbon dioxide incubator at 37° C. for 72 h, followed by 5 μg/ml 25 μL of MTT was added. The culture was continued for 3.5 h, and the supernatant was removed and discarded. 150 μl of the dissolving solution DMSO was added to each well, and the plate was shaked for 5 to 10 min, until the crystals were completely dissolved. Then the OD value at 570 nm was measured by a microplate reader. The cell viability of each drug dilution was calculated: cell viability %=(mean value of experimental well OD measured value/mean value of control well OD measured value)×100%. The drug concentration at 50% cell poisoning (IC50) was calculated using probability unit regression. The cell lines in Example 1 were subjected to an activity assay using Anagrelide at a concentration of 1 μM, and the cell lines were classified into three categories according to cell viability: sensitive (S), moderately sensitive (M), and insensitive (R), and the IC50 value of anagrelide in inhibiting each cell line was further determined.

Another series has as its system platelets. Nature of the series: Inhibition of platelets in vitro. The format is cell-based. To be noted: Platelet; read-out: IC50 of anagrelide inhibiting platelets in vitro.
Series [3] in a line: Animal experiment, safety at tumor-inhibiting doses. The format is in vivo. To be noted: 10 mg-200 mg/kg.
The next series deals with SMMC7721. The series can be described thus: MTT assay, IC50 of anagrelide on tumor cell line. To be noted: Homo sapiens, SMMC-7721, 72 h. The format is cell-based. As to the method: (§2) 3. Determination of Half Poisoning Dose of Drugs to Cells (MTT Method)
(§3) The liquid containing drugs was continuously geometrically diluted to 1:10, 1:100, 1:1,000, 1:10,000 with a cell maintenance solution, and a normal cell control group was set up. Different concentrations of each drug were added into a 96-well plate that has been grown into a single layer, respectively, and inoculated per dilution in triplicate, and 100 μl was added per well, and the plate was incubated in a carbon dioxide incubator at 37° C. for 72 h, followed by 5 μg/ml 25 μL of MTT was added.
(§4) The culture was continued for 3.5 h, and the supernatant was removed and discarded. 150 μl of the dissolving solution DMSO was added to each well, and the plate was shaked for 5 to 10 min, until the crystals were completely dissolved. Then the OD value at 570 nm was measured by a microplate reader. The cell viability of each drug dilution was calculated: cell viability %=(mean value of experimental well OD measured value/mean value of control well OD measured value)×100%. The drug concentration at 50% cell poisoning (IC50) was calculated using probability unit regression.
(§5) The cell lines in Example 1 were subjected to an activity assay using Anagrelide at a concentration of 1 μM, and the cell lines were classified into three categories according to cell viability: sensitive (S), moderately sensitive (M), and insensitive (R), and the IC50 value of anagrelide in inhibiting each cell line was further determined.
A general note: Tetrazolium assays rely on reduction of a dye to a coloured formazan, in cell work by metabolically active cells.

The subject of another series is SW1116. The series can be described thus: MTT assay, IC50 of anagrelide on tumor cell line. To be noted: Homo sapiens, SW 1116, 72 h. The class given is cell-based. As to the method:
as §2, §3, §4, §5

The subject of another series is FHCC98. Nature of the series: MTT assay, IC50 of anagrelide on tumor cell line. To be noted: Homo sapiens, FHCC-98, 72 h. The format is cell-based. The procedure: as §2, §3, §4, §5
Another series concerns Bel7404. Nature of the series: MTT assay, IC50 of anagrelide on tumor cell line. The format is cell-based. To be noted: Homo sapiens, BEL-7404, 72 h. The procedure:
as §2, §3, §4, §5

Another series relates to H4. Nature of the series: MTT assay, IC50 of anagrelide on tumor cell line. The class given is cell-based. To be noted: Homo sapiens, 72 h. As to the method: as §2, §3, §4, §5
For another series, the system named is A498. Nature of the series: MTT assay, IC50 of anagrelide on tumor cell line. To be noted: Homo sapiens, 72 h. The class given is cell-based. The procedure:
as §2, §3, §4, §5

The next series relates to Hela. Nature of the series: MTT assay, IC50 of anagrelide on tumor cell line. The class given is cell-based. To be noted: Homo sapiens, 72 h. As to the method:
as §2, §3, §4, §5

Series [4] concerns Twenty cell lines negatively expressing PDE3A. Nature of the series: Antitumor activity assay (MTT), PDE3A-negative cell lines. The class given is cell-based, human. The procedure: as §1, with “150 μl of the dissolving solution DMSO was added to each well, and the plate was shaked for 5 to 10 min, until the crystals were completely dissolved.” left out, “The drug concentration at 50% cell poisoning (IC50) was calculated using probability unit regression. The cell lines in Example 1 were subjected to an activity assay using Anagrelide at a concentration of 1 μM, and the cell lines were classified into three categories according to cell viability: sensitive (S), moderately sensitive (M), and insensitive (R), and the IC50 value of anagrelide in inhibiting each cell line was further determined.” left out

Series [5] concerns HeLa cells transfected with pde3a siRNA. Nature of the series: RTCA growth monitoring of HeLa cells after pde3a siRNA knockdown and anagrelide treatment. To be noted: pde3a siRNA KD1/KD2 vs NC. The format is cell-based, human. As to the method: Wherein, NC: control group, KD: PDE3A knockdown group. The HeLa cells in logarithmic growth phase were inoculated into 96-well plates or RTCA plates at about 6000/well and cultivated overnight until the cells were attached about 70-80%, and the cells were in good condition; a certain amount of serum-free and antibiotic-free medium was added into two EP tubes, respectively, and a suitable amount of siRNA was added into one tube and mixed, while a suitable amount of Lipofectamine™2000 was added into the other tube and mixed at room temperature for 5-10 min. The medium supplemented with Lipofectamine™ reagent was added into the siRNA-containing EP tube and mixed at room temperature for 15 min; during the placement, the cells were washed once with serum-free and non-double antibody medium, and 75 μL of the medium was added, ready for use. After 15 minutes, the mixed medium was added into the cell culture dish, 25 μL/well, and gently shaken and mixed; after cultured at 37° C., 5% CO2 for 6 hours, the medium was changed to fresh medium containing 10% FBS; after 24-72 h, the expression of RNAi interference protein was detected by western blot. […] The real-time monitor automatically monitored cell growth for more than 4 days, and the amount of cells was reflected according to the size of the resistance formed by spreading the cells. […]

The test system of a further series is Bel7404, A498 and SW1116. Nature of the series: Antitumor activity assay (MTT), moderately sensitive PDE3A-positive cell lines. The format is cell-based, human. As to the method: as §1, with “150 μl of the dissolving solution DMSO was added to each well, and the plate was shaked for 5 to 10 min, until the crystals were completely dissolved.” left out, “The drug concentration at 50% cell poisoning (IC50) was calculated using probability unit regression. The cell lines in Example 1 were subjected to an activity assay using Anagrelide at a concentration of 1 μM, and the cell lines were classified into three categories according to cell viability: sensitive (S), moderately sensitive (M), and insensitive (R), and the IC50 value of anagrelide in inhibiting each cell line was further determined.” left out

As for `O=C1CN2Cc3c(ccc(Cl)c3Cl)NC2=N1` [anagrelide, 6,7-dichloro-1,5-dihydroimidazo [2,1-b]quinazolin-2(3H) one], in [1], the “PI positive cells, KD group vs control group” value is “fewer PI positive cells than that in the control group”. In addition, the IC50 was less than 30 nM in series [2] (SMMC7721, FHCC98, H4, HeLa (PDE3A positive), read-out: IC50 values, sensitive cell lines); less than 30 nM in series [2] (sensitive tumor cells, in vitro, read-out: IC50 for sensitive tumor cells in vitro); 270 to 1000 nM in the series on platelets; 15 nM in the series on SMMC7721; 14500 nM in the series on SW1116; 8 nM in the series with FHCC98. Also, the IC50 in the series on Bel7404 is 428 nM; in the series with H4 it was 23 nM; in the series on A498 it was 15900 nM; in the series on Hela it was 22 nM; in [4] (Homo sapiens, twenty cell lines negatively expressing PDE3A) it was greater than 50000 nM; in the series on Bel7404, A498 and SW1116 (Homo sapiens, Bel7404, A498, SW1116 (PDE3A positive)) it was 400 to 16000 nM. For the same compound, the “sensitivity class by cell survival rate” value in series [2] (anagrelide 1 μM, 72 hours, MTT) is “sensitive (sensitive (survival rate <40%))”; in [4] (anagrelide 1 μM, 72 hours, MTT) it was “not sensitive”; with Bel7404, A498 and SW1116 (anagrelide 1 μM, 72 hours, MTT), “moderately sensitive (moderately sensitive (40-75% of survival rate))”. The “safety at doses that inhibit tumor cell growth” value in [3] is reported as “safe”. The “survival rate after anagrelide was added, KD vs NC group” value in series [5] is “the survival rate of KD2 with the lower level of PDE3A protein was the highest, while that in the NC group was the lowest”.
